Legend:
spermine oxidase (mSMO) [1] = biological target: T1, spermine oxidase (mSMO) (Mus musculus, UniProt Q99K82); assay: enzyme inhibition of recombinant mSMO with Spm as substrate, Dixon plot; assay type: biochemical
T1 construct: gene Smox; Murine recombinant SMO

spermine oxidase (mSMO) [2] = biological target: T1, spermine oxidase (mSMO); assay: enzyme inhibition of mSMO, Ki in Table […] (reference inhibitor; assay not detailed in Methods); assay type: biochemical; conditions: cited from earlier work

T1 sequence (Q99K82 whole entry): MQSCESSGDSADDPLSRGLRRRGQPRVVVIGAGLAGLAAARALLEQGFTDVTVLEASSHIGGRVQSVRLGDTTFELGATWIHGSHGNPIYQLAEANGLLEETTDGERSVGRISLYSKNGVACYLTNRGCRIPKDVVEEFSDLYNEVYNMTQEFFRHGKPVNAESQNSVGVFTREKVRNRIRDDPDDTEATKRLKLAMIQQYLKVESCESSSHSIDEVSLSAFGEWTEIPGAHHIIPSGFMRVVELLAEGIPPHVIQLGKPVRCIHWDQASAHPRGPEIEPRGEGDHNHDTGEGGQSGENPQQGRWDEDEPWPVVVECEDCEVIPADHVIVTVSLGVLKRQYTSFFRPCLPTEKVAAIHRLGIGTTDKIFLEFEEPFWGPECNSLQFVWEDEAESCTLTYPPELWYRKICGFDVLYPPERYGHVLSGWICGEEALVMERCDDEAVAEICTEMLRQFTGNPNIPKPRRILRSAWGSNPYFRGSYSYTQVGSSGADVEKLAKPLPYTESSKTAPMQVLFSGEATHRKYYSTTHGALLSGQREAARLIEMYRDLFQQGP

Structure (SMILES) | Ki (spermine oxidase (mSMO) [1]) [µM] | Ki (spermine oxidase (mSMO) [2]) [µM]
CCNCCCNCCCNCCCNCC [BENSpm] | 380 | 
CCNCCCNCCCNCCCNCC1CC1 [CPENSpm, N^1-ethyl-N^11-(cyclopropyl)-methyl-4,8-diazaundecane] | 85 | 
C=C=CCNCCCCNCC=C=C [MDL72527, N^1, N^4-bis(2,3-butadienyl)-1,4butanediamine] |  | 63

— publication PMC3027604, “Spermine oxidase (SMO) activity in breast tumor tissues and biochemical analysis of the anticancer spermine analogues BENSpm and CPENSpm” (2010)
